This experiment deals with corn. Description: Field trial: esterase on urea with or without NBPT, corn yield. Type of experiment: in vivo. Conditions: corn, NBPT 64 fl oz/ton on Urea (135 lb/A Nitrogen), no EstA. How it is done: Esterase A (EstA) from Bacillus subtilis (SEQ ID NO:254) was produced via fermentation of a recombinantly produced enzyme in Bacillus subtilis. 1, 2, or 3 fl oz of fermentation product was applied onto 135 lb N/A (nitrogen equivalent per acre) urea fertilizer in a concrete mixer, and allowed to mix for 1 minute. A urea control treatment without fermentation media was also created. An addition treatment that contained 64 fl oz/ton N-Butyl-thiophosphoric triamide (NBPT) nitrogen stabilizer or 64 fl oz/ton NBPT nitrogen stabilizer with 3 fl oz/A EstA fermentation product was also included in the trial. Urea, alone or with fermentation media was distributed across 4 small replicated plots each prior to planting of corn with 4 replicates of 400 ft2 each at each site.

In the case of `CCCCNP(N)(N)=S` [NBPT, N-Butyl-thiophosphoric triamide, reference compound], the Yield is, setting by setting: (base control 188.2) 191.2 Bu/A; (base control 11830.4) 12022.3 Kg/ha.

Source of the values: patent US20240324599A1, “PESTICIDAL ENZYMES FOR USE ON NEMATODES, INSECTS, AND MOLLUSKS” (priority 2023, published 2024).
